Results as given in ChEMBL document CHEMBL1147225, “Tricin from a malagasy connaraceous plant with potent antihistaminic activity” (J Nat Prod, 2003).

Key:
RBL-2H3 = test: Antihistaminic activity in rat RBL2H3 cells assessed as inhibition of DNP-BSA-induced beta-hexosaminidase release preincubated for 10 mins before DNP-BSA challenge; type: functional, cell-based
[1] = Cytotoxicity against rat RBL2H3 cells at 500 uM by optical microscope; type: cell-based; details: rbl-2h3, 500 µM

| SMILES | IC50 (RBL-2H3) | Activity [1] |
| --- | --- | --- |
| COc1cc(-c2cc(=O)c3ccccc3o2)cc(OC)c1O | 97.5 µM | Non-toxic |
| COc1c(OC)c(OC)c2c(=O)cc(-c3ccc(O)c(O)c3)oc2c1OC | 203 µM | Non-toxic |
| O=c1cc(-c2cc([N+](=O)[O-])cc([N+](=O)[O-])c2)oc2cc(O)cc(O)c12 | > 500 µM | Non-toxic |
| COc1cc(OC)cc(-c2cc(=O)c3c(O)cc(O)cc3o2)c1 | > 500 µM | Non-toxic |
| COc1cc(-c2oc3cc(O)cc(O)c3c(=O)c2C(C)=O)cc(OC)c1O | 212 µM | Non-toxic |
| COc1cc(-c2cc(=O)c3c(O)cc(O)cc3o2)cc(OC)c1OC | 424 µM | Non-toxic |
| COc1ccc(-c2cc(=O)c3c(O)cc(O)cc3o2)cc1OC | > 500 µM | Non-toxic |
| COc1ccc(-c2cc(=O)c3ccccc3o2)cc1OC [3',4'-DIMETHOXYFLAVONE] | > 500 µM | Non-toxic |
| COc1cc(OC)cc(-c2cc(=O)c3ccccc3o2)c1 [3',5'-DIMETHOXYFLAVONE] | > 500 µM | Non-toxic |
| O=c1cc(-c2ccc(O)cc2)oc2cc(O)cc(O)c12 [APIGENIN] | 124 µM | Non-toxic |
| O=c1cc(-c2ccccc2)oc2cc(O)c(O)c(O)c12 [BAICALEIN] | 179 µM | Non-toxic |
| O=c1cc(-c2ccccc2)oc2cc(O)cc(O)c12 [CHRYSIN] | > 500 µM | Non-toxic |
| COc1cc2oc(-c3ccc(O)cc3)cc(=O)c2c(O)c1OC [CIRSIMARITIN] | 161 µM | Non-toxic |
| O=C(O)c1cc(=O)c2c(OCC(O)COc3cccc4oc(C(=O)O)cc(=O)c34)cccc2o1 [CROMOLYN SODIUM] | 1540 µM | – |
| O=c1cc(-c2ccc(O)c(O)c2)oc2cc(O)cc(O)c12 [LUTEOLIN] | 58.2 µM | Non-toxic |
| O=c1cc(-c2ccc(O)cc2)oc2cc(O)c(O)c(O)c12 [SCUTELLAREIN] | 67.2 µM | Non-toxic |
| COc1c(OC)c(O)c2c(=O)cc(-c3ccc(O)c(O)c3)oc2c1OC [SIDERITIFLAVONE] | > 500 µM | Non-toxic |
| COc1ccc(-c2cc(=O)c3c(OC)c(OC)c(OC)c(OC)c3o2)cc1 [TANGERETIN] | > 500 µM | Non-toxic |
| COc1cc(-c2cc(=O)c3c(O)cc(O)cc3o2)cc(OC)c1O [TRICIN] | 4.83 µM | Non-toxic |
